The values that follow come from publication PMC5010932 (Molecular cancer therapeutics, 2016).

This assay deals with NAMPT (Homo sapiens, UniProt P43490). As to the kind of experiment: cell-free coupled-enzyme colorimetric assay with recombinant NAMPT. The class given is biochemical.
NAMPT, sequence (P43490 whole entry): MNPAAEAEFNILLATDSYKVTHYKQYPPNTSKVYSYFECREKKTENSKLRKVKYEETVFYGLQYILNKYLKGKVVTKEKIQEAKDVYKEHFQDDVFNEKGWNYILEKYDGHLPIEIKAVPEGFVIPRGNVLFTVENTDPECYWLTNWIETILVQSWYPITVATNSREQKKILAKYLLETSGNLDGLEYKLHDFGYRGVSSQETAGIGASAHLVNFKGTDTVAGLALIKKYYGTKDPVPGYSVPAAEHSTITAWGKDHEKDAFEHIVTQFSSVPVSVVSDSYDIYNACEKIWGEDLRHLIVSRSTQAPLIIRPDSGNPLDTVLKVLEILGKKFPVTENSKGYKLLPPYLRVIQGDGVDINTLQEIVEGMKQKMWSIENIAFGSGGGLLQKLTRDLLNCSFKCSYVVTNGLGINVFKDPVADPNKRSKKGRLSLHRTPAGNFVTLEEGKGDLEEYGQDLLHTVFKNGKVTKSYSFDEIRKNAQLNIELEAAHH

Consider `Nc1ccc(/C=C/C(=O)NCc2cc3cc(-c4ccc(C(=O)N5CCC(F)(F)CC5)cc4)cc(-c4ccc(F)cc4)c3o2)cn1` [KPT-9274], for which the IC50 was around 120 nM.

A word on the IC50: it is the midpoint of a concentration-inhibition curve.
